{"source": "patent US20240293387A1", "about": "“Methods of Treating Fabry Disease in Pediatric Patients” (Amicus Therapeutics, Inc., priority 2021, published 2024)", "key": {"[1]": {"test_system": "patients with Fabry disease with amenable mutations", "type": "in vivo, human", "method": "These analyses included data from 4 Phase 2 and 4 Phase 3 clinical trials with the data cutoff of Feb.\nFAB-CL-202 (NCT00283959), FAB-CL-203 (NCT00283933), and FAB-CL-204 (NCT00304512) were phase 2, open-label, noncomparative studies that evaluated the safety, tolerability, pharmacokinetics (PK), and pharmacodynamics (PD) of migalastat (dose range: 50-250 mg) in patients with Fabry disease.\nFAB-CL-205 (NCT0052607) was a phase 2, long-term, open-label extension (OLE) study for patients completing phase 2 clinical trials, including FAB-CL-202, FAB-CL-203, and FAB-CL-204. The study included a period with migalastat 150 mg every other day (QOD), then a dose-escalation period, followed by 150 mg QOD.\nFACETS (AT1001-011, NCT00925301) was a phase 3, placebo-controlled study designed to evaluate the efficacy, safety, and PD of 6 months of migalastat 150 mg QOD versus placebo, followed by an 18-month open label extension (OLE) of migalastat in ERT-naive patients with Fabry disease and migalastat-amenable GLA variants.\nAT1001-041 (NCT01458119) was a long-term OLE study evaluating the long-term safety and efficacy of migalastat in patients completing FAB-CL-205, AT1001-011, or AT1001-012\nAT1001-042 (NCT02194985) is an ongoing, long-term OLE study evaluating the long-term safety and efficacy of migalastat in patients who participated in AT1001-012 or AT1001-041.\nThe analysis evaluates CBV events reported as treatment-emergent adverse events (TEAEs) during migalastat 150 mg QOD treatment in patients with amenable mutations in phase 2 and phase 3 clinical trials.\nCBV events were identified by searching medical history and TEAE listings with stroke-related terms, including brain stem ischemia, cerebral infarction, cerebral hemorrhage, cerebral ischemia, cerebrovascular accident, embolic stroke, and TIA.\nOnly amenable patients who received at least 1 dose of migalastat 150 mg QOD were included in this analysis."}, "[2]": {"test": "Population PK (popPK) model of migalastat in adults (NONMEM, bootstrap)", "design": "species or system human", "conditions": "Bootstrap", "method": "A population pharmacokinetics (popPK) model previously developed from healthy adult volunteers and adult patients with Fabry disease after oral migalastat administration. After pooling plasma concentration-time data from Phase I, II, and III studies of AT1001 administered orally in adults using a range of doses from 25 mg to 675 mg and regimens under fasting conditions. […] In contrast, other covariates such as sex, age, drug formulation (solution or suspension vs 25 mg capsule vs 150 mg capsule) were not statistically/clinically significant. Since renal function gradually increases from birth and reaches adult levels by the second year of life (Rubin 1949), there are no expected age-dependent changes in eGFR in the pediatric population 2 years and older than adults. Additionally, pediatric patients with Fabry disease usually have a normal renal function or may experience renal hyperfiltration (Hopkin 2008); therefore, weight-based dosing regimens, assuming that pediatrics have a normal renal function, were planned for the simulations in pediatric Fabry patients. NONMEM program was used to develop the population PK model of migalastat in adults using first-order conditional estimation with interaction (FOCE-I). Simulations were conducted using NONMEM to obtain plasma concentration-time; all graphical analyses were performed using R; noncompartmental analysis and pharmacokinetic parameters summaries were conducted using Phoenix WinNonlin. Bootstrapping and visual predictive checks (VPC)s were conducted using Perl-speaks-NONMEM (PsN) R packages of popED and mrgsolve were used in the optimal sampling strategy. […] The overall purpose of the model development was to come up with a model for pediatric extrapolation. […] Moreover, pediatric CLT/F values extrapolated from the non-renal model were higher than the overall CLT/F approach, resulting in higher pediatric doses for achieving equivalent exposures with adults which was a less conservative approach. Therefore, the overall CLT/F scaling approach is more conservative and was chosen for the final model, which is shown in Table 6. The estimated parameters from bootstrap (see Table 6) were nearly identical to those estimated from the original dataset. All parameters were estimated with adequate precision."}, "[3]": {"conditions": "150 mg QOD, FAB-CL 202, 203, 204, and 205 (n = 17)"}}, "note": "Like-named read-outs stand apart in the source and are kept apart here.", "data": [{"smiles": "OC[C@H]1NC[C@H](O)[C@@H](O)[C@H]1O", "note": "[migalastat, (2R,3S,4R,5S)-2-(hydroxymethyl) piperdine-3,4,5-triol]", "values": [{"measurement": "Any CBV event during treatment, unique patients", "setting": "[1]; 150 mg QOD, ATTRACT (n = 49)", "value": "2 (4%)"}, {"measurement": "Brain stem ischemia during treatment, patients", "setting": "[1]; 150 mg QOD, ATTRACT (n = 49)", "value": 0}, {"measurement": "Cerebral hemorrhage during treatment, patients", "setting": "[1]; 150 mg QOD, ATTRACT (n = 49)", "value": 0}, {"measurement": "Cerebral infarction during treatment, patients", "setting": "[1]; 150 mg QOD, ATTRACT (n = 49)", "value": 0}, {"measurement": "Cerebral ischemia during treatment, patients", "setting": "[1]; 150 mg QOD, ATTRACT (n = 49)", "value": 0}, {"measurement": "Cerebrovascular accident during treatment, patients", "setting": "[1]; 150 mg QOD, ATTRACT (n = 49)", "value": 0}, {"measurement": "Embolic stroke during treatment, patients", "setting": "[1]; 150 mg QOD, ATTRACT (n = 49)", "value": 0}, {"measurement": "Transient ischemic attack during treatment, patients", "setting": "[1]; 150 mg QOD, ATTRACT (n = 49)", "value": "2 (4%)"}, {"measurement": "Any CBV event during treatment, unique patients", "setting": "[1]; [3]", "value": "3 (18%)"}, {"measurement": "Brain stem ischemia during treatment, patients", "setting": "[1]; [3]", "value": 0}, {"measurement": "Cerebral hemorrhage during treatment, patients", "setting": "[1]; [3]", "value": 0}, {"measurement": "Cerebral infarction during treatment, patients", "setting": "[1]; [3]", "value": "1 (6%)"}, {"measurement": "Cerebral ischemia during treatment, patients", "setting": "[1]; [3]", "value": "1 (6%)"}, {"measurement": "Cerebrovascular accident during treatment, patients", "setting": "[1]; [3]", "value": "1 (6%)"}, {"measurement": "Embolic stroke during treatment, patients", "setting": "[1]; [3]", "value": 0}, {"measurement": "Transient ischemic attack during treatment, patients", "setting": "[1]; [3]", "value": "1 (6%)"}, {"measurement": "Any CBV event during treatment, unique patients", "setting": "[1]; 150 mg QOD, FACETS (n = 48)", "value": "3 (6%)"}, {"measurement": "Brain stem ischemia during treatment, patients", "setting": "[1]; 150 mg QOD, FACETS (n = 48)", "value": "1 (2%)"}, {"measurement": "Cerebral hemorrhage during treatment, patients", "setting": "[1]; 150 mg QOD, FACETS (n = 48)", "value": "1 (2%)"}, {"measurement": "Cerebral infarction during treatment, patients", "setting": "[1]; 150 mg QOD, FACETS (n = 48)", "value": 0}, {"measurement": "Cerebral ischemia during treatment, patients", "setting": "[1]; 150 mg QOD, FACETS (n = 48)", "value": 0}, {"measurement": "Cerebrovascular accident during treatment, patients", "setting": "[1]; 150 mg QOD, FACETS (n = 48)", "value": 0}, {"measurement": "Embolic stroke during treatment, patients", "setting": "[1]; 150 mg QOD, FACETS (n = 48)", "value": 0}, {"measurement": "Transient ischemic attack during treatment, patients", "setting": "[1]; 150 mg QOD, FACETS (n = 48)", "value": "1 (2%)"}, {"measurement": "Number of CBV events reported during treatment", "setting": "[1]; 150 mg QOD, N = 114", "value": 11}, {"measurement": "Brain stem ischemia during treatment, patients", "setting": "[1]; 150 mg QOD, Total (N = 114)", "value": "1 (1%)"}, {"measurement": "Cerebral hemorrhage during treatment, patients", "setting": "[1]; 150 mg QOD, Total (N = 114)", "value": "1 (1%)"}, {"measurement": "Cerebral infarction during treatment, patients", "setting": "[1]; 150 mg QOD, Total (N = 114)", "value": "1 (1%)"}, {"measurement": "Cerebral ischemia during treatment, patients", "setting": "[1]; 150 mg QOD, Total (N = 114)", "value": "1 (1%)"}, {"measurement": "Cerebrovascular accident during treatment, patients", "setting": "[1]; 150 mg QOD, Total (N = 114)", "value": "1 (1%)"}, {"measurement": "Embolic stroke during treatment, patients", "setting": "[1]; 150 mg QOD, Total (N = 114)", "value": 0}, {"measurement": "Transient ischemic attack during treatment, patients", "setting": "[1]; 150 mg QOD, Total (N = 114)", "value": "4 (4%)"}, {"measurement": "CBV events categorized as serious adverse events (SAE)", "setting": "[1]; 150 mg QOD, of 11 CBV events", "value": "Seven"}, {"measurement": "CBV events considered related to treatment", "setting": "[1]; 150 mg QOD, of 11 CBV events", "value": "None"}, {"measurement": "CBV events mild or moderate in severity", "setting": "[1]; 150 mg QOD, of 11 CBV events", "value": 82, "unit": "%"}, {"measurement": "CBV events that led to treatment discontinuation", "setting": "[1]; 150 mg QOD, of 11 CBV events", "value": "Two"}, {"measurement": "Time on migalastat 150 mg QOD at first event onset, mean (SD)", "setting": "[1]; 8 patients with CBV events", "value": "1.1 (1.1) years"}, {"measurement": "Patients with pre-migalastat CBV event who did not experience new CBV event during treatment", "setting": "[1]; among the 16 patients with pre-migalastat CBV event", "value": "10 (63%)"}, {"measurement": "Overall incidence of CBV events during migalastat treatment", "setting": "[1]; average of 4 years of migalastat", "value": "low"}, {"measurement": "EGFR-related exponential index on CL/F, Estimate (% RSE)", "setting": "[2]", "value": "0.925 (5.25%);"}, {"measurement": "Fractional Change in V2/F in subjects without Fabry disease (decrease in V2/F), Estimate (% RSE)", "setting": "[2]", "value": "−0.305 (12.3%);"}, {"measurement": "Fractional Change in total CL/F in subjects without Fabry disease (decrease in total CL/F), Estimate (% RSE)", "setting": "[2]", "value": "−0.151 (23.5%);"}]}]}
